# Laboratory results published in US7642367B2, “Diamino-functional chalcones” (Lica Pharmaceuticals A/S, priority 2002, dated 2010).
# Like-named read-outs stand apart in the source and are kept apart here.
# How the values were obtained:
# [1] = Determination of metabolic stability (liver microsomes); type: in vitro ADME, Wistar rat; settings: for Metabolic turn-over in vitro: rat liver microsomes, 20 μM, 15 min at 37° C.
# Method: incubations were performed with Wistar rat liver microsomes (0.25 mg/ml) in 2% sodium bicarbonate solution. NADP (0.13 mg/ml), glucose-6-phosphate (0.63 mg/ml) and glucose-6-phosophate dehydrogenase (0.38 units/ml) were used as NADPH generation system and UDPGA (0.48 mg/ml) was added to include the phase II reaction, glucuronic acid conjugation, in the assay. After 5 minutes of pre-incubation the reaction was started by addition of the test article to give a final concentration of 20 μM. Samples were incubated for 15 min at 37° C. and the reactions were terminated by addition of equal volumes of acetonitrile. Blank incubations were performed at the same concentration but without addition of microsomes. Both blank and microsome-containing samples were made in replicats of three. Prior to analysis samples were centrifuged for 10 min. at 3500 rpm, HPLC system:
# Initial conditions were 40% mobile phase A (acetonitrile) and 60% mobile phase B (10 mM ammonium acetate pH 9.5). During the first 20 minutes, the mobile phase was changed via a linear gradient to 90% A and 10% B. This was followed by a 5 minutes linear gradient to initial conditions, which were maintained for 5 min. The flow rate was 0.20 ml/min and injection volume 10 μl.
# Plasmodium berghei K173 [2] = assay: Multiple intra venous administration in Plasmodium berghei K173 infected mice; type: in vivo; settings: Plasmodium berghei K173 infected NMRI female mice, multiple intra venous administrations, FIG. 10
# Method: The doses stated were administered intra venously as solutions in a suitable vehicle.
# [3] = system: Plasmodium falciparum 3D7; assay: Plasmodium falciparum assay (3H-phenylalanine labelling); type: cell-based
# [4] = Determination of solubility in phosphate buffer pH 7.4; type: physicochemical; settings: aqueous buffer at pH 7.4
# Method: Solubility of the compounds was determined by preparing a saturated solution of compound in 0.3 M phosphate buffer (pH 7.4±0.3) in a brown glass tube. The suspensions were rotated slowly for 24 hours. Aliquots were centrifuged for 10 minutes at 14.000 rpm and supernatants were diluted in 40% (v/v) acetonitrile in water prior to HPLC analysis. Concentrations of analytes were quantified against a standard curve and used as term of solubility.
# The HPLC-UV method used for the assessment of solubility is the same as used in the in vitro metabolism assay.
# Plasmodium berghei K173 [5] = settings: Plasmodium berghei K173 infected NMRI female mice, multiple oral administrations, FIG. 8
# [6] = mice
# [7] = system: Plasmodium falciparum K1 (Cq-res); settings: read-out: Plasmodium falciparum IC50
# [8] = system: Plasmodium falciparum 7G8 (Cq-res); settings: read-out: Plasmodium falciparum IC50
# [9] = system: Plasmodium falciparum DD2 (Cq-res); settings: read-out: Plasmodium falciparum IC50
# [10] = mice; remark: listed apart in the source
# [11] = system: Enterococcus faecium #17501 (vancomycin-resistant clinical isolate); assay: MIC determination in broth microdilution assay; settings: E: Enterococcus faecium #17501 (vancomycin-resistant); NA: no activity
# [12] = system: Staphylococcus aureus ATCC29213; assay: MIC determination in broth microdilution assay; settings: A: Staphylococcus aureus ATCC29213; NA: no activity
# [13] = system: Eschericia coli ATCC25922; assay: MIC determination in broth microdilution assay; settings: G: Eschericia coli ATCC25922; NA: no activity
# [14] = system: Streptococcus pneumoniae #998 (clinical isolate); assay: MIC determination in broth microdilution assay; settings: F: Streptococcus pneumoniae #998; NA: no activity
# [15] = system: Enterococcus faecalis ATCC29212; assay: MIC determination in broth microdilution assay; settings: D: Enterococcus faecalis ATCC29212; NA: no activity
# [16] = system: Staphylococcus aureus ATCC33591 (resistant to methicillin); assay: MIC determination in broth microdilution assay; settings: B: Staphylococcus aureus ATCC33591 (resistant to methicillin); NA: no activity
# [17] = system: Staphylococcus intermedius #2357 (clinical isolate); assay: MIC determination in broth microdilution assay; settings: C: Staphylococcus intermedius #2357; NA: no activity
# Eschericia coli ESS = assay: MIC determination in broth microdilution assay; settings: H: Eschericia coli ESS; NA: no activity
# non-fastidious bacteria = assay: Activity against non-fastidious bacteria (panel); settings: pathogenic Gram-positive bacteria
compound,measurement,setting,value
"CN(C)CCN(C)c1cccc(/C=C/C(=O)c2ccccc2CN(C)C)c1 [B074, (E)-3-{3-[(2-Dimethylamino-ethyl)-methyl-amino]-phenyl}-1-(2-dimethylaminomethyl-phenyl)-propenone]",Metabolic turn-over in vitro,[1],0%
same,effect on parasitaemia,Plasmodium berghei K173 [2],significant decrease in the parasitaemia
same,IC50,"[3]; Plasmodium falciparum 3D7 (Table 2), read-out: IC50",0.6 µM
same,Solubility,[4],15400 µg/mL
"Cc1ccccc1-c1cc(/C=C/C(=O)c2ccccc2CN(C)C)cc(N(C)CCN(C)C)c1 [B119, (E)-3-{5-[(2-Dimethylamino-ethyl)-methyl-amino]-2′-methyl-biphenyl-3-yl}-1-(2-dimethylaminomethyl-phenyl)-propenone]",effect on infection (parasitaemia),Plasmodium berghei K173 [5],inhibit the development of the infection
same,metabolism,[1]; rat,8.6%
same,Metabolic turn-over in vitro,[1],9%
same,metabolism,[6],75%
"COc1ccc(C(=O)/C=C/c2cc(-c3ccccc3)cc(N3CCN(C)CC3)c2)c(CN(C)C)c1 [B111, (E)-1-(2-Dimethylaminomethyl-4-methoxy-phenyl)-3-[5-(4-methyl-piperazin-1-yl)-biphenyl-3-yl]-propenone]",IC50,[7],1 µM
same,Metabolic turn-over in vitro,[1],4%
same,IC50,[8],1.3 µM
same,IC50,[9],1 µM
same,IC50,"[3]; 3D7 (Cq-sen) (Table 3), read-out: Plasmodium falciparum IC50",1.6 µM
same,Solubility,[4],3100 µg/mL
"COc1ccccc1-c1ccc(/C=C/C(=O)c2ccc(O)c(CN(C)C)c2)c(N2CCN(C)CC2)c1 [B098, (E)-1-(3-Dimethylaminomethyl-4-hydroxy-phenyl)-3-[2′-methoxy-3-(4-methyl-piperazin-1-yl)-biphenyl-4-yl]-propenone]",bioavailability,[10],50%
"Cc1cc(C)cc(-c2ccc(N3CCN(C)CC3)c(/C=C/C(=O)c3cccc(NCCN(C)C)c3)c2)c1 [B101, (E)-1-[3-(2-Dimethylamino-ethylamino)-phenyl]-3-[3′,5′-dimethyl-4-(4-methyl-piperazin-1-yl)-biphenyl-3-yl]-propenone]",MIC,[11],4.7 µM
same,MIC,[12],4.7 µM
same,MIC,[13],9.4 µM
same,MIC,[14],4.7 µM
same,Metabolic turn-over in vitro,[1],3%
same,MIC,[15],4.7 µM
same,MIC,[16],4.7 µM
same,MIC,[17],9.4 µM
same,MIC,Eschericia coli ESS,4.7 µM
same,activity against Gram-positive non-fastidious bacteria,non-fastidious bacteria,increased potency
